According to ChEMBL document CHEMBL1121769, “5'Chloropuromycin. Inhibition of protein synthesis and antitrypanosomal activity” (J Med Chem, 1981):

Tested on: Mus musculus; call rule not given here
Experiment: Tested for inhibitory activity against CT strain of Trypanosoma rhodesiense infected mice after administration at 106 mg/kg; Not active
Format: functional, organism-based
Design: dose 106 mg/kg

In the case of `COc1ccc(CC(N)C(=O)NC2C(C)OC(n3cnc4c(N(C)C)ncnc43)C2O)cc1` (stereo unspecified), the IC50 is reported as “Not Active”.
